{"source": "patent US20150182487A1", "about": "“COMPOSITION FOR PREVENTING AND TREATING INFLAMMATORY DISEASES AND IMMUNE DISEASES, CONTAINING APO-9`-FUCOXANTHINONE AS ACTIVE INGREDIENT” (JEJU NATIONAL UNIVERSITY INDUSTRY ACADEMIC COOPERATION …, priority 2012, published 2015)", "key": {"[1]": {"tested_on": "IL-12 p40, IL-6, and TNF-α", "assay": "ELISA of pro-inflammatory cytokine production in CpG-ODN-stimulated bone marrow-derived dendritic cells", "type": "cell-based, mouse", "details": "compound 5, 10, 20, 50 μM for 1 hour before CpG-ODN (1 μM), FIG. 5", "experimental": "(§1) Bone marrow-derived dendritic cells (BMDC) and macrophage (BMDM) were obtained from a wild-type C57BL/6 mouse. To be brief, bone marrow cells were obtained by flushing a tibia and femur of the mouse with DMEM (Dulbecco's modified Eagles medium). The cells were cultured in a medium RPMI 1640 including 10% heat-inactivated FBS (Gibco, NY, U.S.A.), 50 μM of β-mercapto ethanol, and 2 mM glutamine and supplemented with 3% hybridoma cell culture supernatant J558L containing granulocyte-macrophage colony-stimulating factor (GM-CSF) for BMDCs.\n(§2) In order to check whether the Sargassum muticum extracts obtained in the present invention has an anti-inflammatory and an immunomodulatory activity, the following experiments were conducted with the Sargassum muticum extracts obtained in Example <1-1>. That is, bone marrow-derived macrophage and dendritic cells cultured as described above were seeded at 1×10^5 cells/0.5 ml in a 48-well plate. […] Supernatants were harvested 18 hour after stimulation. Amounts of IL-12 p40, IL-6, and TNF-α were measured using ELISA (BD PharMingen, CA, USA and R&D system, MN, USA). At this time, a non-treated group, a group treated with the extracts only, and a group treated with CpG-ODN only without treatment with the extracts were used as a control group. […]"}, "[2]": {"tested_on": "bone marrow-derived macrophages", "assay": "MTT assay of pyroptotic cell death of bone marrow-derived macrophages treated with LPS and ATP", "type": "cell-based, mouse", "details": "bone marrow-derived macrophages treated with both LPS and ATP; compound 6.25-50 μM; FIG. 9 lower graph", "experimental": "When LPS primed bone marrow-derived macrophages are treated with ATP, NLPR3 inflammasome is activated, and, thus, IL-1β is secreted. Therefore, in order to check whether the apo-9′-fucoxanthinone compound has an effect of inhibiting the NLRP3 inflammasome, the inventors of the present invention checked a degree of IL-1β production induced by ATP in LPS primed BMDMs using ELISA To do so, the bone marrow-derived macrophages cultured in the same manner as Example 2 were dispensed at 1×10^5 cells/0.5 ml in a 48-well plate, and these cells were treated with LPS at a concentration of 10 ng/ml for 18 hours. Then, the cells were treated with the apo-9′-fucoxanthinone compound at each concentration (0, 6.25, 12.5, 25, and 50 μM) for 1 hour. At 2 hours after treatment with ATP at a concentration of 5 mM, a cell culture medium was obtained and an expression amount of IL-1β was measured using ELISA (R&D system, MN, USA). […]\nThat is, the cells treated as described above were treated with 0.2 mg of an MTT reagent and cultured at a temperature of 37° C. for 4 hours. After culture, the cells were collected and formazan crystals in each well were dissolved in 250 μl of DMSO, and then, an absorbance at 540 nm was measured to measure cell viability."}, "AP-1": {"tested_on": "AP-1", "assay": "AP-1 reporter luciferase assay in TLR9-transfected HEK293T cells stimulated with CpG-ODN", "type": "cell-based", "details": "HEK293T cells transfected with murine TLR9-expressing plasmid; pre-treated 1 hour before CpG DNA (1 μM), 18 hour; FIG. 7", "experimental": "It is known that activation of an MAPK signaling pathway activates a transcriptional factor AP-1, thereby increasing a DNA binding activity of AP-1 and expression of an AP-1-dependent gene. […] Firstly, HEK239T cells were plated in a 24-well plate and cultured overnight. Then, HEK293T cells were transfected with pcDNA3 (empty vector) or pcDNA3-mTLR9 that expresses murine TLR9, with an AP-1 reporter gene and pRLnull (Promega, WI, USA) using a Fugene 6 (Roche, UN, USA). Cells were then further incubated for 24 hour, and then pre-treated with the apo-9′-fucoxanthinone compound at each concentration as described in the above Examples for 1 hour before stimulation with CpG DNA (1 μM). After further incubation for 18 hour, the cells were lysed with a passive lysis buffer (Promega), and then analyzed using a dual luciferase reporter assay system (Promega). All of the experiments were repeated three times, and the results thereof were expressed in the fold increase."}, "IκBα": {"tested_on": "IκBα", "assay": "Western blot of degradation and phosphorylation of IκBα in CpG-ODN-stimulated macrophages", "type": "cell-based, mouse", "details": "macrophages pre-treated at 20 μM for 1 hour before CpG-ODN; FIG. 6B", "experimental": "(§3) In order to check whether the apo-9′-fucoxanthinone compound has an effect on activities of MAPK and NF-κB that are upstream signal transduction pathways for pro-inflammatory cytokine production, a Western blot analysis was conducted as follows. That is, the macrophages were dispensed to 60-mm culture dishes at 4×10^6 cells per dish, and then cultured for 24 hours at 37° C. The cells were pre-treated with the apo-9′-fucoxanthinone compound at a concentration of 20 μM for 1 hour before treatment with CpG-ODN. The cells were collected and dissolved using a lysis buffer (PRO-PREP Lysis buffer, iNtRON Biotechnology). Protein samples were electrophoresed in 10%-SDS PAGE, and then electrophoresed in a polyvinylidene fluoride membrane, and then treated and reacted with phospho-p44/42 (P-ERK p44/p42), phospho-p38 (P-p38), p38 MAPK, phospho-SAPK/JNK (P-JNK), phospho-IκBα, and IκBα (Cell Signaling Technology, MA, USA) as 1/1000 diluted primary antibodies. Thereafter, the membrane was washed and treated and reacted with horseradish peroxidase-linked anti-rabbit IgG (Cell Signaling Technology). Then, a signal was checked using a WEST-ZOL plus western blot detection system (iNtRON Biotechnology)."}, "[3]": {"tested_on": "IL-12 p40, IL-6, and TNF-α", "assay": "ELISA of pro-inflammatory cytokine production in CpG-ODN-stimulated bone marrow-derived macrophage", "type": "cell-based, mouse", "details": "compound 5, 10, 20, 50 μM for 1 hour before CpG-ODN (1 μM), FIG. 4", "experimental": "as §1\nFurther, the obtained bone marrow cells were cultured in a DMEM including 20% heat-inactivated FBS, a 30% L929 cell culture supernatant containing a macrophage colony-stimulating factor, and 1% penicillin-streptomycin for BMDMs.\nas §2, with “USA).” for “USA). At this time, a non-treated group, a group treated with the extracts only, and a group treated with CpG-ODN only without treatment with the extracts were used as a control group.”"}, "NLRP3 inflammasome": {"target": "T1, NLRP3 inflammasome (Mus musculus, UniProt Q8R4B8)", "T1 construct": "checked a degree of IL-1β production induced by ATP in LPS primed BMDMs using ELISA; endogenous in cells; host or cells: bone marrow-derived macrophages (BMDM) from wild-type C57BL/6 mouse, LPS-primed and ATP-stimulated", "T1 sequence (Q8R4B8 whole entry)": "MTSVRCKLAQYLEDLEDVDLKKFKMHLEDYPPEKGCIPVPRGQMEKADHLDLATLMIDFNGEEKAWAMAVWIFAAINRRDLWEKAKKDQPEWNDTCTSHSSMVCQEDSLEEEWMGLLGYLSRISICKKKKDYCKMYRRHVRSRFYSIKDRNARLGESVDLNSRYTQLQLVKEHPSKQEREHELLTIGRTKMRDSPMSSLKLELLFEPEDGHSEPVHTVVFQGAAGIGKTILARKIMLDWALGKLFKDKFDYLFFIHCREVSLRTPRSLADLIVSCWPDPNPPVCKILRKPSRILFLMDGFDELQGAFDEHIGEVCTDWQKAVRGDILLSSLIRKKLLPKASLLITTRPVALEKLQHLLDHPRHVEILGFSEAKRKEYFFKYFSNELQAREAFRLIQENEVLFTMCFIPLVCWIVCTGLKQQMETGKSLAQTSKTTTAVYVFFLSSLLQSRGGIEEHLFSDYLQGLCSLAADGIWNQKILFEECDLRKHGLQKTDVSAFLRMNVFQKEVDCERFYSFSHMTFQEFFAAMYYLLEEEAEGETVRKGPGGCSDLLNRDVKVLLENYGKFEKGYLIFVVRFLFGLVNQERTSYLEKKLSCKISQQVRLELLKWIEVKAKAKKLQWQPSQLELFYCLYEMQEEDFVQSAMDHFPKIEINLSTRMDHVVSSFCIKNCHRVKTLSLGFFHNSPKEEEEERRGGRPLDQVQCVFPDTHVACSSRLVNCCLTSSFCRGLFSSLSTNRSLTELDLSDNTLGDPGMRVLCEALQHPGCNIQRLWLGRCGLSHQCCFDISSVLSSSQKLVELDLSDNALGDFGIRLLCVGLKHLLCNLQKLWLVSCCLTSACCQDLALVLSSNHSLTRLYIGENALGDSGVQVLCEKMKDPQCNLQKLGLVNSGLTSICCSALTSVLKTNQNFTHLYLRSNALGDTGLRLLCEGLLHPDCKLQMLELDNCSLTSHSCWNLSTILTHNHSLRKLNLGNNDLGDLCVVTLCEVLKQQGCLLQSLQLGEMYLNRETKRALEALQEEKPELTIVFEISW", "assay": "ELISA of IL-1β production induced by ATP in LPS primed BMDMs", "type": "cell-based", "details": "BMDMs primed with LPS 10 ng/ml 18 hours; compound 6.25, 12.5, 25, 50 μM 1 hour; ATP 5 mM 2 hours; FIG. 9 upper graph", "experimental": "When LPS primed bone marrow-derived macrophages are treated with ATP, NLPR3 inflammasome is activated, and, thus, IL-1β is secreted. Therefore, in order to check whether the apo-9′-fucoxanthinone compound has an effect of inhibiting the NLRP3 inflammasome, the inventors of the present invention checked a degree of IL-1β production induced by ATP in LPS primed BMDMs using ELISA To do so, the bone marrow-derived macrophages cultured in the same manner as Example 2 were dispensed at 1×10^5 cells/0.5 ml in a 48-well plate, and these cells were treated with LPS at a concentration of 10 ng/ml for 18 hours. Then, the cells were treated with the apo-9′-fucoxanthinone compound at each concentration (0, 6.25, 12.5, 25, and 50 μM) for 1 hour. At 2 hours after treatment with ATP at a concentration of 5 mM, a cell culture medium was obtained and an expression amount of IL-1β was measured using ELISA (R&D system, MN, USA). Further, as a positive control group, a group treated with 10 μM parthenolide (described as “part” in the drawings) known as an NLRP3 inflammasome inhibitor was used."}, "ERK1/2 (ERK p44/p42)": {"tested_on": "ERK1/2 (ERK p44/p42)", "assay": "Western blot of MAPK phosphorylation in CpG-ODN-stimulated macrophages", "type": "cell-based, mouse", "details": "macrophages pre-treated at 20 μM for 1 hour before CpG-ODN; FIG. 6A", "experimental": "as §3"}}}
{"smiles": "CC(=O)C=C=C1C(C)(C)C[C@H](OC(C)=O)C[C@@]1(C)O", "note": "[apo-9′-fucoxanthinone]", "values": [{"measurement": "pro-inflammatory cytokine production (IL-12 p40, IL-6, TNF-α)", "setting": "[1]", "result": "effectively inhibiting"}, {"measurement": "pyroptotic cell death (cell viability, MTT)", "setting": "[2]", "result": "inhibiting pyroptotic cell death"}, {"measurement": "AP-1-dependent luciferase activity", "setting": "AP-1", "result": "decreased in a dose-dependent manner"}, {"measurement": "degradation and phosphorylation of IκBα", "setting": "IκBα", "result": "did not greatly affect"}, {"measurement": "pro-inflammatory cytokine production (IL-12 p40, IL-6, TNF-α)", "setting": "[3]", "result": "effectively inhibiting"}, {"measurement": "production of IL-1β", "setting": "NLRP3 inflammasome", "result": "effectively inhibited in a dose-dependent manner"}, {"measurement": "phosphorylation of ERK1/2 (ERK p44/p42)", "setting": "ERK1/2 (ERK p44/p42)", "result": "strongly inhibited"}]}
